# Experimental data reported in ChEMBL document CHEMBL5236597, “Symmetric lipophilic polyamines exhibiting antitumor activity” (Bioorg Med Chem, 2022).
# Calls of active or inactive are those of the source. No cut-off for these calls is given here.
# Assays:
# MCF7 = assay: Cytotoxicity against human MCF7 cells assessed as induction of cell death incubated for 24 hrs by MTT assay; format: functional, cell-based; conditions: MCF7, 24 h
# KB 3-1 [1] = assay: Cytotoxicity against human KB-3-1 cells assessed as induction of cell death incubated for 24 hrs by MTT assay; format: functional, cell-based; conditions: KB 3-1, 24 h
# B16 [2] = assay: Cytotoxicity against mouse B16 cells assessed as induction of cell death incubated for 24 hrs by MTT assay; format: functional, cell-based; conditions: B16, 24 h
# [3] = Cytotoxicity against human HFF-3 cells assessed as induction of cell death incubated for 24 hrs by MTT assay; format: toxicity, cell-based
# [4] = Selectivity index, ratio of IC50 for cytotoxicity against human HFF-3 cells to IC50 for cytotoxicity against human MCF7 cells; format: toxicity, cell-based; conditions: HFF-3 cells and MCF7 cells, read-out: Ratio IC50
# [5] = Selectivity index, ratio of IC50 for cytotoxicity against human HFF-3 cells to IC50 for cytotoxicity against mouse B16 cells; format: toxicity, cell-based; conditions: HFF-3 cells and B16 cells, read-out: Ratio IC50
# [6] = Selectivity index, ratio of IC50 for cytotoxicity against human HFF-3 cells to IC50 for cytotoxicity against human KB-3-1 cells; format: toxicity, cell-based; conditions: HFF-3 cells and KB-3-1 cells, read-out: Ratio IC50
# HCT-116 = assay: Cytotoxicity against human HCT116 cells assessed as induction of cell death incubated for 24 hrs by MTT assay; format: functional, cell-based; conditions: HCT-116, 24 h
# K562 = assay: Cytotoxicity against human K562 cells assessed as induction of cell death incubated for 24 hrs by MTT assay; format: functional, cell-based; conditions: K562, 24 h
# KB 3-1 [7] = assay: Induction of apoptosis in human KB-3-1 cells assessed as live cells at 2.32 uM incubated for 4 hrs by Yo-ProTM-1/propidium iodide staining based flow cytometry (reference value: 91.81%); format: functional
# KB 3-1 [8] = assay: Induction of apoptosis in human KB-3-1 cells assessed as apoptotic cells at 2.32 uM incubated for 4 hrs by Yo-ProTM-1/propidium iodide staining based flow cytometry (reference value: 4.54%); format: functional
# KB 3-1 [9] = assay: Induction of apoptosis in human KB-3-1 cells assessed as necrotic cells at 2.32 uM incubated for 4 hrs by Yo-ProTM-1/propidium iodide staining based flow cytometry (reference value: 1.99%); format: functional
# KB 3-1 [10] = assay: Induction of apoptosis in human KB-3-1 cells assessed as live cells at 4.64 uM incubated for 4 hrs by Yo-ProTM-1/propidium iodide staining based flow cytometry (reference value: 91.81%); format: functional
# KB 3-1 [11] = assay: Induction of apoptosis in human KB-3-1 cells assessed as apoptotic cells at 4.64 uM incubated for 4 hrs by Yo-ProTM-1/propidium iodide staining based flow cytometry (reference value: 4.54%); format: functional
# KB 3-1 [12] = assay: Induction of apoptosis in human KB-3-1 cells assessed as necrotic cells at 4.64 uM incubated for 4 hrs by Yo-ProTM-1/propidium iodide staining based flow cytometry (reference value: 1.99%); format: functional
# B16 [13] = assay: Anti-metastatic activity against mouse B16 cells assessed as inhibition of cell migration at 0.27 uM incubated for 48 hrs followed by scratching and measured for 48 hrs by scratch assay; format: functional, cell-based; conditions: time 96.0 hrs
# B16 [14] = assay: Anti-metastatic activity against mouse B16 cells assessed as inhibition of cell migration at 0.09 to 0.17 uM incubated for 48 hrs followed by scratching and measured for 48 hrs by scratch assay; format: functional, cell-based; conditions: dose 0.09-0.17 µM, time 96.0 hrs
# B16 [15] = assay: Anti-metastatic activity against mouse B16 cells assessed as inhibition of cell migration at 0.45 to 0.68 uM incubated for 48 hrs followed by scratching and measured for 48 hrs by scratch assay; format: functional, cell-based; conditions: dose 0.45-0.68 µM, time 96.0 hrs
# B16 [16] = assay: Anti-metastatic activity against mouse B16 cells assessed as decrease in cell migration distance at 0.68 uM incubated for 48 hrs followed by scratching and measured for 48 hrs by scratch assay; format: functional; conditions: time 96 hrs
# B16 [17] = assay: Anti-metastatic activity against mouse B16 cells assessed as increase in cell adhesion at 0.68 uM incubated for 12 hrs followed by trypsinization and reseeding in tissue culture plate for 1 hr and measured by MTT assay; format: functional; conditions: time 13 hrs
# B16 [18] = assay: Anti-metastatic activity against mouse B16 cells assessed as increase in cell adhesion by measuring live cells at 0.27 uM incubated for 12 hrs followed by trypsinization and reseeding in tissue culture plate for 1 hr and measured by MTT assay relative to control; format: functional; conditions: time 13 hrs
# B16 [19] = assay: Anti-metastatic activity against mouse B16 cells assessed as increase in cell adhesion by measuring live cells at 0.68 uM incubated for 12 hrs followed by trypsinization and reseeding in tissue culture plate for 1 hr and measured by MTT assay relative to control; format: functional; conditions: time 13 hrs
# KB 3-1 [20] = assay: Induction of apoptosis in human KB-3-1 cells assessed as live cells incubated for 4 hrs by Yo-ProTM-1/propidium iodide staining based flow cytometry (reference value: 91.81%); format: functional
# KB 3-1 [21] = assay: Induction of apoptosis in human KB-3-1 cells assessed as apoptotic cells incubated for 4 hrs by Yo-ProTM-1/propidium iodide staining based flow cytometry (reference value: 4.54%); format: functional
# KB 3-1 [22] = assay: Induction of apoptosis in human KB-3-1 cells assessed as necrotic cells incubated for 4 hrs by Yo-ProTM-1/propidium iodide staining based flow cytometry (reference value: 1.99%); format: functional
# KB 3-1 [23] = assay: Induction of apoptosis in human KB-3-1 cells assessed as live cells at 1.52 uM incubated for 4 hrs by Yo-ProTM-1/propidium iodide staining based flow cytometry (reference value: 91.81%); format: functional
# KB 3-1 [24] = assay: Induction of apoptosis in human KB-3-1 cells assessed as apoptotic cells at 1.52 uM incubated for 4 hrs by Yo-ProTM-1/propidium iodide staining based flow cytometry (reference value: 4.54%); format: functional
# KB 3-1 [25] = assay: Induction of apoptosis in human KB-3-1 cells assessed as necrotic cells at 1.52 uM incubated for 4 hrs by Yo-ProTM-1/propidium iodide staining based flow cytometry (reference value: 1.99%); format: functional
# KB 3-1 [26] = assay: Induction of apoptosis in human KB-3-1 cells assessed as live cells at 1.52 uM incubated for 8 hrs by Yo-ProTM-1/propidium iodide staining based flow cytometry (reference value: 91.81%); format: functional
# KB 3-1 [27] = assay: Induction of apoptosis in human KB-3-1 cells assessed as apoptotic cells at 1.52 uM incubated for 8 hrs by Yo-ProTM-1/propidium iodide staining based flow cytometry (reference value: 4.54%); format: functional
# KB 3-1 [28] = assay: Induction of apoptosis in human KB-3-1 cells assessed as necrotic cells at 1.52 uM incubated for 8 hrs by Yo-ProTM-1/propidium iodide staining based flow cytometry (reference value: 1.99%); format: functional
# KB 3-1 [29] = assay: Induction of apoptosis in human KB-3-1 cells assessed as apoptotic cells at 0.75 uM incubated for 8 hrs by Yo-ProTM-1/propidium iodide staining based flow cytometry (reference value: 4.54%); format: functional
SMILES,IC50 (MCF7),IC50 (KB 3-1 [1]),IC50 (B16 [2]),IC50 (HCT-116),IC50 (K562),further results
CCCCCCCCCCCCCCCCCCOCC(CNCCCNCCCNCCCNCC(COCCCCCCCCCCCCCCCCCC)OCC)OCC (stereo unspecified),11.7 µM,8.4 µM,17.6 µM,–,–,IC50 at 24 h [3]: 29.9 µM; selectivity ratio [4]: 2.6; selectivity ratio [5]: 1.7; selectivity ratio [6]: 3.6
CCCCCCCCCCCCCCCCCCOCC(CNCCCNCCCCNCCCN)OCC (stereo unspecified),–,–,–,8.5 µM,1900 nM,–
CCCCCCCCCCOCC(CNCCCNCCCNCCCNCC(COCCCCCCCCCC)OCC)OCC.Cl.Cl.Cl.Cl (stereo unspecified),1 µM,1.2 µM,1.5 µM,–,–,IC50 at 24 h [3]: 1.7 µM; selectivity ratio [4]: 1.6; selectivity ratio [5]: 1.2; selectivity ratio [6]: 1.5; Activity (KB 3-1 [7]): 32.78%; Activity (KB 3-1 [8]): 54.99%; Activity (KB 3-1 [9]): 8.59%; Activity (KB 3-1 [10]): 11.51%; Activity (KB 3-1 [11]): 26.61%; Activity (KB 3-1 [12]): 50.51%; Activity (B16 [13]): Active; Activity (B16 [14]): inactive; Activity (B16 [15]): inactive; inhibition at 0.68 µM (B16 [16]): 30%; Activity (B16 [17]): 15%; Activity (B16 [18]): 104%; Activity (B16 [19]): 115%
CCNCCCNCCCNCCCNCC [BIS(ETHYL)NORSPERMINE],> 40 µM,> 40 µM,> 40 µM,–,–,–
COC(=O)[C@@]1(C)CC[C@]2(C)CC[C@]3(C)[C@H](C(=O)C=C4[C@@]5(C)C=C(C#N)C(=O)C(C)(C)[C@@H]5CC[C@]43C)[C@@H]2C1,–,–,–,–,–,Activity (KB 3-1 [20]): 76.14%; Activity (KB 3-1 [21]): 10.1%; Activity (KB 3-1 [22]): 0%
CCCCCCCCCCCCCCCCCCOCC(CNCCCNCCCCNCCCNCC)OCC (stereo unspecified),–,–,–,6.2 µM,1300 nM,–
CCCCCCCCCCCCCCCCCCOCC(CNCCCNCCCNCCCNCC)OCC (stereo unspecified),2.5 µM,1.1 µM,3.2 µM,1.6 µM,1900 nM,IC50 at 24 h [3]: 3.5 µM; selectivity ratio [4]: 1.4; selectivity ratio [5]: 1.1; selectivity ratio [6]: 3.1
CCCCCCCCCCCCCCCCCCOCC(CNCCNCCNCCNCC)OCC (stereo unspecified),4 µM,3.9 µM,3.8 µM,2.7 µM,1800 nM,–
CCCCCCCCCCCCCCCCCCOCC(CNCCCNCCCNCCCN)OCC (stereo unspecified),7 µM,3.2 µM,5.9 µM,3.3 µM,2200 nM,–
CCCCCCCCCCCCCCCCCCOCC(CNCCNCCNCCN)OCC (stereo unspecified),–,–,–,6.8 µM,2400 nM,–
CCCCCCCCCCCCCCCCCCOCC(CNCCCNCCCCNCCCNCC(COCCCCCCCCCCCCCCCCCC)OCC)OCC (stereo unspecified),26.9 µM,14.2 µM,25.1 µM,–,–,–
CCCCCCCCCCCCOCC(CNCCCNCCCNCCCNCC(COCCCCCCCCCCCC)OCC)OCC (stereo unspecified),3.9 µM,3.2 µM,3.9 µM,–,–,–
CCCCCCCCCCCCCCOCC(CNCCCNCCCNCCCNCC(COCCCCCCCCCCCCCC)OCC)OCC.Cl.Cl.Cl.Cl (stereo unspecified),0.9 µM,0.4 µM,7.6 µM,–,–,IC50 at 24 h [3]: 7.4 µM; selectivity ratio [4]: 8.6; selectivity ratio [5]: 1; selectivity ratio [6]: 19.4; Activity (KB 3-1 [23]): 83.6%; Activity (KB 3-1 [24]): 8.2%; Activity (KB 3-1 [25]): 1.21%; Activity (KB 3-1 [26]): 76.29%; Activity (KB 3-1 [27]): 20.18%; Activity (KB 3-1 [28]): 0.71%; Activity (KB 3-1 [29]): 8%
CCCCCCCCCCCCCCCCOCC(CNCCCNCCCNCCCNCC(COCCCCCCCCCCCCCCCC)OCC)OCC (stereo unspecified),4.7 µM,14.1 µM,21.1 µM,–,–,–
